Data reported in patent US10227331B2 (priority 2015, dated 2019).

Columns and labels:
IMP-1 = IMP-1 (Serratia marcescens, UniProt P52699); assay: biochemical; assay type: biochemical; details: CCF2-FA substrate, 2 hours at 25° C; read-out: IMP-1 IC50
Procedure, shortened: (§1)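 IC50 values derive from 4-parameter fits of percent inhibition against inhibitor concentration on semi-log axes. Activity was monitored by fluorescence with the CCF2-FA substrate after a 2-hour, 25° C incubation of compound, enzyme and substrate.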

NDM-1 = NDM-1 (Klebsiella pneumoniae, UniProt C7C422); assay: biochemical; assay type: biochemical; details: CCF2-FA substrate, 2 hours at 25° C; read-out: NDM-1 IC50
Procedure, shortened: as §1

VIM-1 = VIM-1 (Pseudomonas aeruginosa (strain ATCC 15692 / DSM 22644 / CIP 104116 / JCM 14847 / LMG 12228 / 1C / PRS 101 / PAO1), UniProt A0A0F7KYQ8); assay: biochemical; details: CCF2-FA substrate, 2 hours at 25° C
Procedure, shortened: as §1

[1] = tested on: Escherichia coli expressing NDM-1 (CLB30005, CLB30016); assay type: cell-based; details: with imipenem 1 μg/ml, 95% inhibition of bacterial growth; for Escherichia coli MITC95: NDM-1 (CLB30016)
Procedure, shortened: (§2)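 Restoration of imipenem susceptibility (1 μg/ml imipenem) was judged by absorbance after 22–24 h at 35° C. Test compound was added to bacteria suspended 1:100 in 1.1× CAMHB from overnight blood-agar cultures.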

[2] = tested on: Klebsiella pneumoniae expressing VIM-1 (IHMA599644); assay type: cell-based; details: with imipenem 1 μg/ml, 95% inhibition of bacterial growth; for Klebsiella pneumoniae MITC95: VIM-1 (IHMA599644)
Procedure, shortened: as §2

[3] = tested on: Serratia marcescens expressing IMP-1 (CL5741); assay type: cell-based; details: with imipenem 1 μg/ml, 95% inhibition of bacterial growth; for Serratia marcescens MITC95: IMP-1 (CL5741)
Procedure, shortened: as §2

[4] = tested on: P. aeruginosa expressing IMP-1, efflux+ (MB9798); assay type: cell-based, Pseudomonas aeruginosa; details: for P. aeruginosa expressing IMP-1, efflux+ (MB9798) MITC95: imipenem at 2 μg/mL, in the presence of a class A, C, D serine β-lactamase inhibitor closely related to relebactam; for Efflux ratio: ratio MITC95 PA_9798/MITC95 PA_9799
Excerpt: (§3) The strain background is Pseudomonas aeruginosa PAO1.

[5] = tested on: P. aeruginosa expressing IMP-1, efflux− (MB9799); assay: Efflux: concentration of MBL inhibitor which restores susceptibility to imipenem; assay type: cell-based, Pseudomonas aeruginosa; details: imipenem at 2 μg/mL, in the presence of a class A, C, D serine β-lactamase inhibitor closely related to relebactam
Excerpt: as §3

Sequence of IMP-1 (P52699 whole entry, looked up, species assumed): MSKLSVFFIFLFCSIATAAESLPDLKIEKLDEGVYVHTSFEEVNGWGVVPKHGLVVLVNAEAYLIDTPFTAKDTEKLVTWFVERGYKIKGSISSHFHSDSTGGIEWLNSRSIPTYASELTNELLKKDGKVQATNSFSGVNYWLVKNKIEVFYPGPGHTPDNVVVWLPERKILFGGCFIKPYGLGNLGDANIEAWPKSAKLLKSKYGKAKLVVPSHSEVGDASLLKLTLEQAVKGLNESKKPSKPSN
Sequence of NDM-1 (C7C422 whole entry, looked up, species assumed): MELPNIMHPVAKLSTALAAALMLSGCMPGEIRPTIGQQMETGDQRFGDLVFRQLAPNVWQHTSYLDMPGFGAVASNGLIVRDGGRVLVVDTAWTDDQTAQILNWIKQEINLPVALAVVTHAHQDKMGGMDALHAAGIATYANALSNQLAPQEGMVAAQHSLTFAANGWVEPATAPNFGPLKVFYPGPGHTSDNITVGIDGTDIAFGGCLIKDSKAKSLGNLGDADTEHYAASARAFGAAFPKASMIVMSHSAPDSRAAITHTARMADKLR

Row | SMILES | IC50 (IMP-1) | IC50 (NDM-1) | IC50 (VIM-1) | Escherichia coli expressing NDM-1 (CLB30016) MITC95 [1] | Klebsiella pneumoniae expressing VIM-1 (IHMA599644) MITC95 [2] | Serratia marcescens expressing IMP-1 (CL5741) MITC95 [3] | P. aeruginosa expressing IMP-1, efflux+ (MB9798) MITC95 [4] | Efflux ratio [4] | P. aeruginosa expressing IMP-1, efflux− (MB9799) MITC95 [5] | Escherichia coli MITC95 [1] | Klebsiella pneumoniae MITC95 [2] | Serratia marcescens MITC95 [3]
1 | NCCS(=O)(=O)c1ccc(-c2ccc3c(c2)CC(=O)N3)c(-c2nnn[nH]2)c1S(N)(=O)=O.O=C(O)C(F)(F)F [Example 157, 2-((4-(2-oxoindolin-5-yl)-2-sulfamoyl-3-(1H-tetrazol-5-yl)phenyl)sulfonyl)ethanaminium 2,2,2-trifluoroacetate] | 1.89 nM | 1.94 nM | 0.295 nM | 1.563 µM | 3.125 µM | 1.563 µM | 12.5 µM | 16.00 | 0.7813 µM |  |  | 
2 | NS(=O)(=O)c1c(S(=O)(=O)C2CNC2)ccc(-c2cccn3cncc23)c1-c1nnn[nH]1 [Example 60, 6-(azetidin-3-ylsulfonyl)-3-(imidazo[1,5-a]pyridin-8-yl)-2-(1H-tetrazol-5-yl)benzenesulfonamide] | 2.35 nM | 0.811 nM | 0.408 nM | 1.563 µM | 6.25 µM | 3.125 µM | 12.5 µM | 4.00 | 3.125 µM |  |  | 
3 | Nc1nc2cccc(-c3ccc(S(=O)(=O)[C@H]4CC[C@H](N)CC4)c(S(N)(=O)=O)c3-c3nn[nH]n3)c2[nH]1 [Example 178, 3-(2-amino-3H-benzo[d]imidazol-4-yl)-6-((1r,4r)-4-aminocyclohexylsulfonyl)-2-(2H-tetrazol-5-yl)benzenesulfonamide] | 0.99 nM | 0.275 nM | 0.66 nM | 0.3906 µM | 1.563 µM | 0.7813 µM | 0.7813 µM | 1.00 | 0.7813 µM |  |  | 
4 | Nc1nnc(-c2cccc(-c3ccc(S(=O)(=O)C4CNC4)c(S(N)(=O)=O)c3-c3nnn[nH]3)c2)o1 [Example 344, 3′-(5-Amino-1,3,4-oxadiazol-2-yl)-4-(azetidin-3-ylsulfonyl)-2-(1H-tetrazol-5-yl)-[1,1′-biphenyl]-3-sulfonamide] | 1.7 nM | 0.47 nM | 0.268 nM |  |  |  | 25 µM | 15.99 | 1.563 µM | 3.125 µM | 6.25 µM | 3.125 µM
5 | Cc1ccc2cccc(-c3ccc(S(=O)(=O)C4CNC4)c(S(N)(=O)=O)c3-c3nnn[nH]3)c2n1.O=C(O)C(F)(F)F [Example 122, 3-((4-(2-methylquinolin-8-yl)-2-sulfamoyl-3-(1H-tetrazol-5-yl)phenyl)sulfonyl)azetidin-1-ium 2,2,2-trifluoroacetate] | 0.57 nM | 0.155 nM | 0.324 nM | 3.125 µM | 6.25 µM | 3.125 µM | 6.25 µM | 4.00 | 1.563 µM |  |  | 
6 | NCCS(=O)(=O)c1ccc(-c2ccc(-c3nn[nH]n3)cc2)c(-c2nnn[nH]2)c1S(N)(=O)=O.O=C(O)C(F)(F)F [Example 151, 2-((3-sulfamoyl-2-(1H-tetrazol-5-yl)-4′-(2H-tetrazol-5-yl)-[1,1′-biphenyl]-4-yl)sulfonyl)ethanaminium 2,2,2-trifluoroacetate] | 0.191 nM | 0.271 nM | 0.544 nM | 12.5 µM | 25 µM | 12.5 µM | 12.5 µM | 4.00 | 3.125 µM |  |  | 
7 | NCCS(=O)(=O)c1ccc(-c2cccc(S(=O)(=O)NC3CC3)c2)c(-c2nnn[nH]2)c1S(N)(=O)=O.O=C(O)C(F)(F)F [Example 161, 2-((3′-(N-cyclopropylsulfamoyl)-3-sulfamoyl-2-(1H-tetrazol-5-yl)-[1,1′-biphenyl]-4-yl)sulfonyl)ethanaminium 2,2,2-trifluoroacetate] | 1.69 nM | 3.47 nM | 3.04 nM | 6.25 µM | 12.5 µM | 6.25 µM | 50 µM | 31.99 | 1.563 µM |  |  | 
8 | Nc1c(NCCO)cccc1-c1ccc(S(=O)(=O)C2CNC2)c(S(N)(=O)=O)c1-c1nn[nH]n1 [Example 374, 2′-Amino-4-(azetidin-3-ylsulfonyl)-3′-((2-hydroxyethyl)amino)-2-(2H-tetrazol-5-yl)-[1,1′-biphenyl]-3-sulfonamide] | 2.71 nM | 1.42 nM | 2.57 nM |  |  |  | 6.25 µM | 2.00 | 3.125 µM | 3.125 µM | 6.25 µM | 3.125 µM
9 | NCCS(=O)(=O)c1ccc(-c2ccc3oc(N)nc3c2)c(-c2nn[nH]n2)c1S(N)(=O)=O [Example 77, 3-(2-aminobenzo[d]oxazol-5-yl)-6-(2-aminoethylsulfonyl)-2-(2H-tetrazol-5-yl)benzenesulfonamide] | 1.13 nM | 1.05 nM | 0.385 nM | 0.7813 µM | 1.563 µM | 1.563 µM | 6.25 µM | 8.00 | 0.7813 µM |  |  | 
10 | NCCS(=O)(=O)c1ccc(-c2cccc3[nH]c(=O)[nH]c23)c(-c2nnn[nH]2)c1S(N)(=O)=O [Example 300, 6-((2-aminoethyl)sulfonyl)-3-(2-oxo-2,3-dihydro-1H-benzo[d]imidazol-4-yl)-2-(1H-tetrazol-5-yl) benzenesulfonamide] | 0.415 nM | 0.254 nM | 0.162 nM |  |  |  | 1.563 µM | 2.00 | 0.7813 µM | 0.7813 µM | 3.125 µM | 1.563 µM
11 | COC(=O)c1nc2c(-c3ccc(S(=O)(=O)C4CNC4)c(S(N)(=O)=O)c3-c3nn[nH]n3)cccc2[nH]1 [Example 252, Methyl 4-(4-(azetidin-3-ylsulfonyl)-3-sulfamoyl-2-(2H-tetrazol-5-yl)phenyl)-1H-benzo[d]imidazole-2-carboxylate] | 0.423 nM | 0.0464 nM | 0.209 nM |  |  |  | 3.125 µM | 1.00 | 3.125 µM | 1.563 µM | 6.25 µM | 3.125 µM
